Measurements: publication PMC8119466, “A screen of FDA-approved drugs identifies inhibitors of protein tyrosine phosphatase 4A3 (PTP4A3 or PRL-3)” (Scientific Reports, 2021)
Structures can show the parent of a compound that is named as a salt. Where two headings read alike, the source gives them in different places.

What was measured:
Format in all cases: biochemical
recombinant PRL-3 = target: T1, recombinant PRL-3 (Homo sapiens, UniProt O75365); assay: In vitro phosphatase assay (DiFMUP hydrolysis), PRL-3; note: test concentration or dose not given here
T1 construct: 6xHis (N, cleaved yes); made in house; host or cells: E. coli One Shot BL21 Star
T1 sequence (O75365 whole entry): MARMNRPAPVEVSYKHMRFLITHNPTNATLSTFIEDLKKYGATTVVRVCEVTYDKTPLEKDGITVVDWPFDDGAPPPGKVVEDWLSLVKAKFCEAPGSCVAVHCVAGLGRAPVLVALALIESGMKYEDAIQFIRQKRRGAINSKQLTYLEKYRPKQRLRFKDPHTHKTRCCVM

recombinant PRL-2 = target: T2, recombinant PRL-2 (Homo sapiens, UniProt Q12974); assay: In vitro phosphatase assay (DiFMUP hydrolysis), PRL-2;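 note: PRL-2 activity read as DiFMUP hydrolysis after 20 min at room temperature with drug, enzyme first pre-reduced at 4 °C for 20 min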
T2 construct: 6xHis (N, cleaved yes); made in house; host or cells: E. coli One Shot BL21 Star
T2 sequence (Q12974 1-167): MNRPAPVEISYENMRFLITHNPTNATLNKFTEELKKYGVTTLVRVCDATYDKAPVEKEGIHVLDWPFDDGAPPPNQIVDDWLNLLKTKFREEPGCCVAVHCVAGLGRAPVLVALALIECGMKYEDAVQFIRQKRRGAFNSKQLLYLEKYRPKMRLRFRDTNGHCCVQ

recombinant PRL-1 = target: T3, recombinant PRL-1 (Homo sapiens, UniProt Q93096); assay: In vitro phosphatase assay (DiFMUP hydrolysis), PRL-1; note: test concentration or dose not given here
T3 construct: 6xHis (N, cleaved yes); made in house; host or cells: E. coli One Shot BL21 Star
T3 sequence (Q93096 1-173): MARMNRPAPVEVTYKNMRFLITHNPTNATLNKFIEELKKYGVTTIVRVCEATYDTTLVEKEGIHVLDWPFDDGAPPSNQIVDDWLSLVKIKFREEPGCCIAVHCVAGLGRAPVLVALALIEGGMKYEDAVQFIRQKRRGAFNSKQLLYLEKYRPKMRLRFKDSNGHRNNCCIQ

[1] = FDA-approved drug screen, compared to DMSO

Structure (SMILES) | % Phosphatase Activity (compared to DMSO) PRL-3 (recombinant PRL-3; [1]) | % Phosphatase Activity (compared to DMSO) PRL-2 (recombinant PRL-2; [1]) | % Phosphatase Activity (compared to DMSO) PRL-1 (recombinant PRL-1; [1]) | % Phosphatase Activity (compared to DMSO) PRL-3 (recombinant PRL-3) | % Phosphatase Activity (compared to DMSO) PRL-2 (recombinant PRL-2) | % Phosphatase Activity (compared to DMSO) PRL-1 (recombinant PRL-1)
COc1cc2c(cc1OC)CC(=O)N(CCCN(C)C[C@H]1Cc3cc(OC)c(OC)cc31)CC2.Cl [Ivabradine HCl] | 71% | 113% | 108% | – | – | –
CC(C)(C)c1cc(C(C)(C)C)c(NC(=O)c2c[nH]c3ccccc3c2=O)cc1O [Ivacaftor (VX-770)] | 77% | 87% | 95% | – | – | –
CC[C@H](C)[C@H]1O[C@]2(CC[C@@H]1C)C[C@@H]1C[C@@H](C/C=C(\C)[C@@H](O[C@H]3C[C@H](OC)[C@@H](O[C@H]4C[C@H](OC)[C@@H](O)[C@H](C)O4)[C@H](C)O3)[C@@H](C)/C=C/C=C3\CO[C@@H]4[C@H](O)C(C)=C[C@@H](C(=O)O1)[C@]34O)O2 [Ivermectin] | 69% | 102% | 91% | – | – | –
O=C(/C=C\n1cnc(-c2cc(C(F)(F)F)cc(C(F)(F)F)c2)n1)NNc1cnccn1 [KPT-330] | 97% | 69% | 87% | – | – | –
CC(=O)N1CCN(c2ccc(OCC3COC(Cn4ccnc4)(c4ccc(Cl)cc4Cl)O3)cc2)CC1 (stereo not drawn) [Ketoconazole] | 75% | 89% | 92% | – | – | –
CC(C(=O)O)c1cccc(C(=O)c2ccccc2)c1 (stereo not drawn) [Ketoprofen] | 87% | 95% | 105% | – | – | –
O=C(c1ccccc1)c1ccc2n1CCC2C(=O)O (stereo not drawn) [Ketorolac] | 78% | 97% | 98% | – | – | –
CN1CCC(=C2c3ccccc3CC(=O)c3sccc32)CC1 [Ketotifen Fumarate] | 89% | 97% | 93% | – | – | –
Cl.N=C(N)NCCC[C@H](N)C(=O)O [L-Arginine HCl (L-Arg)] | 104% | 91% | 82% | – | – | –
NC(=O)CC[C@H](N)C(=O)O [L-Glutamine] | 87% | 77% | 94% | – | – | –
N[C@@H](Cc1cc(I)c(Oc2cc(I)c(O)c(I)c2)c(I)c1)C(=O)O [L-Thyroxine] | 81% | 92% | 79% | – | – | –
C[N+](C)(C)C[C@H](O)CC(=O)[O-] [L-carnitine] | 83% | 103% | 102% | – | – | –
Cc1c(C(=O)Nc2ccc(N3C[C@@H](C)O[C@@H](C)C3)nc2)cccc1-c1ccc(OC(F)(F)F)cc1 [LDE225 (NVP-LDE225,Erismodegib)] | 83% | 111% | 97% | – | – | –
Cc1cc(Nc2ncc(Cl)c(Nc3ccccc3S(=O)(=O)C(C)C)n2)c(OC(C)C)cc1C1CCNCC1 [LDK378] | 114% | 92% | 99% | – | – | –
CN(C)C(=O)c1cc2cnc(Nc3ccc(N4CCNCC4)cn3)nc2n1C1CCCC1 [LEE011] | 98% | 84% | 103% | – | – | –
Cc1cccc(-c2nn3c(c2-c2ccnc4ccc(C(N)=O)cc24)CCC3)n1 [LY2157299] | 115% | 130% | 111% | – | – | –
CC(C)(C)Cn1c(N)nc2ccc(-c3[nH]c(C(C)(C)C)nc3-c3ccc(F)cc3)nc21 [LY2228820] | 131% | 137% | 159% | – | – | –

Structure (SMILES) | % Phosphatase Activity (compared to DMSO) PRL-3 (recombinant PRL-3; [1]) | % Phosphatase Activity (compared to DMSO) PRL-2 (recombinant PRL-2; [1]) | % Phosphatase Activity (compared to DMSO) PRL-1 (recombinant PRL-1; [1]) | % Phosphatase Activity (compared to DMSO) PRL-3 (recombinant PRL-3) | % Phosphatase Activity (compared to DMSO) PRL-2 (recombinant PRL-2) | % Phosphatase Activity (compared to DMSO) PRL-1 (recombinant PRL-1)
Cc1cc(Nc2cc(CN3CCOCC3)c3nc(C)c(Cc4ccc(Cl)cc4F)n3n2)n[nH]1 [LY2784544] | 95% | 167% | 146% | – | – | –
CCN1CCN(Cc2ccc(Nc3ncc(F)c(-c4cc(F)c5nc(C)n(C(C)C)c5c4)n3)nc2)CC1 [LY2835219] | 99% | 79% | 92% | – | – | –
CC(CCc1ccccc1)NCC(O)c1ccc(O)c(C(N)=O)c1 (stereo not drawn) [Labetalol HCl] | 110% | 154% | 156% | – | – | –
CCOC(=O)C1=C(C)NC(C)=C(C(=O)OCC)C1c1ccccc1/C=C/C(=O)OC(C)(C)C [Lacidipine] | 172% | 329% | 232% | – | – | –
O=C(C[S+]([O-])Cc1ccco1)NC/C=C\COc1cc(CN2CCCCC2)ccn1 (stereo not drawn) [Lafutidine] | 83% | 115% | 114% | – | – | –
Nc1ccn([C@@H]2CS[C@H](CO)O2)c(=O)n1 [Lamivudine] | 92% | 113% | 104% | – | – | –
Nc1nnc(-c2cccc(Cl)c2Cl)c(N)n1 [Lamotrigine] | 83% | 110% | 121% | – | – | –
Cc1c(OCC(F)(F)F)ccnc1C[S+]([O-])c1nc2ccccc2[nH]1 (stereo not drawn) [Lansoprazole] | 59% | 92% | 94% | – | – | –
CS(=O)(=O)CCNCc1ccc(-c2ccc3ncnc(Nc4ccc(OCc5cccc(F)c5)c(Cl)c4)c3c2)o1.Cc1ccc(S(=O)(=O)O)cc1.Cc1ccc(S(=O)(=O)O)cc1 [Lapatinib (GW-572016) Ditosylate] | – | – | – | 142% | 255% | 212%
CS(=O)(=O)CCNCc1ccc(-c2ccc3ncnc(Nc4ccc(OCc5cccc(F)c5)c(Cl)c4)c3c2)o1 [Lapatinib] | – | – | – | 121% | 207% | 207%
COC(=O)N[C@H](C(=O)N1CC2(CC2)C[C@H]1c1nc(-c2ccc3c(c2)C(F)(F)c2cc(-c4ccc5[nH]c([C@@H]6[C@H]7CC[C@H](C7)N6C(=O)[C@@H](NC(=O)OC)C(C)C)nc5c4)ccc2-3)c[nH]1)C(C)C [Ledipasvir (GS5885)] | 144% | 115% | 174% | – | – | –
Cc1oncc1C(=O)Nc1ccc(C(F)(F)F)cc1 [Leflunomide] | 67% | 80% | 88% | – | – | –
Nc1cccc2c1CN(C1CCC(=O)NC1=O)C2=O (stereo not drawn) [Lenalidomide (CC-5013)] | 84% | 95% | 87% | – | – | –
COc1cc2nccc(Oc3ccc(NC(=O)NC4CC4)c(Cl)c3)c2cc1C(N)=O [Lenvatinib (E7080)] | 87% | 85% | 96% | – | – | –
COC(=O)C1=C(C)NC(C)=C(C(=O)OC(C)(C)CN(C)CCC(c2ccccc2)c2ccccc2)C1c1cccc([N+](=O)[O-])c1.Cl (stereo not drawn) [Lercanidipine (hydrochloride)] | 84% | 101% | 87% | – | – | –
O=C(O)CSc1nnc(Br)n1-c1ccc(C2CC2)c2ccccc12 [Lesinurad] | 85% | 102% | 90% | – | – | –
